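Compound exposure: 48 hours, 5 concentrations, 96-well plates. The concentration for full growth arrest is given as TGI.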
Tests used:
Test in all cases: NCI anticancer screen, dose series, 48 h
M19-MEL melanoma = test system: M19-MEL melanoma
SNB-78 CNS = test system: SNB-78 CNS
IGROV1 ovarian = test system: IGROV1 ovarian
CCRF-CEM leukemia = test system: CCRF-CEM leukemia
RXF 393 renal = test system: RXF 393 renal
SK-MEL-2 melanoma = test system: SK-MEL-2 melanoma
OVCAR-5 ovarian = test system: OVCAR-5 ovarian
DMS 114 small cell lung = test system: DMS 114 small cell lung
NCI-H23 lung = test system: NCI-H23 lung
SK-MEL-5 melanoma = test system: SK-MEL-5 melanoma
TK-10 renal = test system: TK-10 renal
U251 CNS = test system: U251 CNS
OVCAR-4 ovarian = test system: OVCAR-4 ovarian
COLO 205 colon = test system: COLO 205 colon
SW-620 colon = test system: SW-620 colon
MOLT-4 leukemia = test system: MOLT-4 leukemia
UO-31 renal = test system: UO-31 renal
SK-OV-3 ovarian = test system: SK-OV-3 ovarian
RXF-631 renal = test system: RXF-631 renal
HCC-2998 colon = test system: HCC-2998 colon
K-562 leukemia = test system: K-562 leukemia
NCI-H522 lung = test system: NCI-H522 lung
UACC-62 melanoma = test system: UACC-62 melanoma
MALME-3M melanoma = test system: MALME-3M melanoma
SF-268 CNS = test system: SF-268 CNS
KM20L2 colon = test system: KM20L2 colon
OVCAR-3 ovarian = test system: OVCAR-3 ovarian
M14 melanoma = test system: M14 melanoma
SNB-75 CNS = test system: SNB-75 CNS
ACHN renal = test system: ACHN renal
SK-MEL-28 melanoma = test system: SK-MEL-28 melanoma
EKVX NSCLC = test system: EKVX NSCLC
HOP-62 NSCLC = test system: HOP-62 NSCLC
KM12 colon = test system: KM12 colon
HCT-15 colon = test system: HCT-15 colon
RPMI-8226 leukemia = test system: RPMI-8226 leukemia
LXFL 529 NSCLC = test system: LXFL 529 NSCLC
SF-295 CNS = test system: SF-295 CNS
SF-539 CNS = test system: SF-539 CNS
A549 NSCLC = test system: A549 NSCLC
HL-60(TB) leukemia = test system: HL-60(TB) leukemia
SNB-19 CNS = test system: SNB-19 CNS
HCT-116 colon = test system: HCT-116 colon
DLD-1 colon = test system: DLD-1 colon
HOP-92 NSCLC = test system: HOP-92 NSCLC
UACC-257 melanoma = test system: UACC-257 melanoma
NCI-H460 lung = test system: NCI-H460 lung
OVCAR-8 ovarian = test system: OVCAR-8 ovarian
A498 renal = test system: A498 renal
786-0 renal = test system: 786-0 renal
SR leukemia = test system: SR leukemia
CAKI-1 renal = test system: CAKI-1 renal
HT29 colon = test system: HT29 colon
SN12C renal = test system: SN12C renal
XF 498 CNS = test system: XF 498 CNS
LOX IMVI melanoma = test system: LOX IMVI melanoma
NCI-H226 lung = test system: NCI-H226 lung

O=C(Cc1cc[n+]([O-])cc1)C(=O)Nc1cc(Cl)c(Cl)cc1Cl
TGI (M19-MEL melanoma): > 100 µM | TGI (SNB-78 CNS): > 100 µM | TGI (IGROV1 ovarian): > 100 µM | TGI (CCRF-CEM leukemia): > 100 µM | TGI (RXF 393 renal): > 100 µM | TGI (SK-MEL-2 melanoma): > 100 µM | TGI (OVCAR-5 ovarian): > 100 µM | TGI (DMS 114 small cell lung): > 100 µM | TGI (NCI-H23 lung): > 100 µM | TGI (SK-MEL-5 melanoma): > 100 µM | TGI (TK-10 renal): > 100 µM | TGI (U251 CNS): > 100 µM | TGI (OVCAR-4 ovarian): > 100 µM | TGI (COLO 205 colon): > 100 µM | TGI (SW-620 colon): > 100 µM | TGI (MOLT-4 leukemia): > 100 µM | TGI (UO-31 renal): > 100 µM | TGI (SK-OV-3 ovarian): > 100 µM | TGI (RXF-631 renal): > 100 µM | TGI (HCC-2998 colon): > 100 µM | TGI (K-562 leukemia): > 100 µM | TGI (NCI-H522 lung): > 100 µM | TGI (UACC-62 melanoma): > 100 µM | TGI (MALME-3M melanoma): > 100 µM | TGI (SF-268 CNS): > 100 µM | TGI (KM20L2 colon): > 100 µM | TGI (OVCAR-3 ovarian): > 100 µM | TGI (M14 melanoma): > 100 µM | TGI (SNB-75 CNS): > 100 µM | TGI (ACHN renal): > 100 µM | TGI (SK-MEL-28 melanoma): > 100 µM | TGI (EKVX NSCLC): > 100 µM | TGI (HOP-62 NSCLC): > 100 µM | TGI (KM12 colon): > 100 µM | TGI (HCT-15 colon): > 100 µM | TGI (RPMI-8226 leukemia): > 100 µM | TGI (LXFL 529 NSCLC): > 100 µM | TGI (SF-295 CNS): > 100 µM | TGI (SF-539 CNS): > 100 µM | TGI (A549 NSCLC): > 100 µM | TGI (HL-60(TB) leukemia): > 100 µM | TGI (SNB-19 CNS): > 100 µM | TGI (HCT-116 colon): > 100 µM | TGI (DLD-1 colon): > 100 µM | TGI (HOP-92 NSCLC): > 100 µM | TGI (UACC-257 melanoma): > 100 µM | TGI (NCI-H460 lung): > 100 µM | TGI (OVCAR-8 ovarian): > 100 µM | TGI (A498 renal): > 100 µM | TGI (786-0 renal): > 100 µM

COc1cc(/C=C(\NC(=O)c2ccccc2)c2nc3[nH]c(=S)[nH]c(=O)c3[nH]2)cc(OC)c1OC
TGI (M19-MEL melanoma): > 100 µM | TGI (SNB-78 CNS): > 100 µM | TGI (IGROV1 ovarian): > 100 µM | TGI (CCRF-CEM leukemia): > 100 µM | TGI (RXF 393 renal): > 100 µM | TGI (SK-MEL-2 melanoma): > 100 µM | TGI (OVCAR-5 ovarian): > 100 µM | TGI (DMS 114 small cell lung): > 100 µM | TGI (NCI-H23 lung): > 100 µM | TGI (SK-MEL-5 melanoma): > 100 µM | TGI (TK-10 renal): > 100 µM | TGI (SR leukemia): > 100 µM | TGI (U251 CNS): > 100 µM | TGI (OVCAR-4 ovarian): > 100 µM | TGI (COLO 205 colon): > 100 µM | TGI (SW-620 colon): > 100 µM | TGI (MOLT-4 leukemia): > 100 µM | TGI (UO-31 renal): > 100 µM | TGI (SK-OV-3 ovarian): > 100 µM | TGI (RXF-631 renal): > 100 µM | TGI (HCC-2998 colon): > 100 µM | TGI (K-562 leukemia): > 100 µM | TGI (CAKI-1 renal): > 100 µM | TGI (NCI-H522 lung): > 100 µM | TGI (UACC-62 melanoma): > 100 µM | TGI (MALME-3M melanoma): > 100 µM | TGI (SF-268 CNS): > 100 µM | TGI (KM20L2 colon): > 100 µM | TGI (OVCAR-3 ovarian): > 100 µM | TGI (M14 melanoma): > 100 µM | TGI (ACHN renal): > 100 µM | TGI (SK-MEL-28 melanoma): > 100 µM | TGI (EKVX NSCLC): > 100 µM | TGI (KM12 colon): > 100 µM | TGI (HT29 colon): > 100 µM | TGI (HCT-15 colon): > 100 µM | TGI (LXFL 529 NSCLC): > 100 µM | TGI (SF-295 CNS): > 100 µM | TGI (SF-539 CNS): > 100 µM | TGI (A549 NSCLC): > 100 µM | TGI (HL-60(TB) leukemia): > 100 µM | TGI (SNB-19 CNS): > 100 µM | TGI (DLD-1 colon): > 100 µM | TGI (HOP-92 NSCLC): > 100 µM | TGI (OVCAR-8 ovarian): > 100 µM | TGI (SN12C renal): > 100 µM | TGI (786-0 renal): > 100 µM | TGI (XF 498 CNS): > 100 µM

CC1CC[C@@]23CCC4(C)[C@@](C=CC5[C@@]6(C)CCC(=O)C(C)(C)C6CC[C@]54C)(OC2=O)[C@@H]3[C@H]1C (stereo not given in full)
TGI (M19-MEL melanoma): 68.5 µM | TGI (SNB-78 CNS): 67.9 µM | TGI (LOX IMVI melanoma): 36.3 µM | TGI (IGROV1 ovarian): > 100 µM | TGI (CCRF-CEM leukemia): 53.4 µM | TGI (RXF 393 renal): 41.2 µM | TGI (DMS 114 small cell lung): 34.1 µM | TGI (NCI-H23 lung): 42 µM | TGI (SK-MEL-5 melanoma): 28.5 µM | TGI (TK-10 renal): 56.5 µM | TGI (SR leukemia): 26.5 µM | TGI (U251 CNS): 52.9 µM | TGI (OVCAR-4 ovarian): > 100 µM | TGI (COLO 205 colon): 27.7 µM | TGI (SW-620 colon): > 100 µM | TGI (MOLT-4 leukemia): 27.8 µM | TGI (UO-31 renal): 40.2 µM | TGI (SK-OV-3 ovarian): 80 µM | TGI (RXF-631 renal): 71.4 µM | TGI (K-562 leukemia): > 100 µM | TGI (CAKI-1 renal): > 100 µM | TGI (NCI-H522 lung): 37.9 µM | TGI (UACC-62 melanoma): > 100 µM | TGI (MALME-3M melanoma): 52 µM | TGI (SF-268 CNS): > 100 µM | TGI (KM20L2 colon): > 100 µM | TGI (OVCAR-3 ovarian): 39.3 µM | TGI (NCI-H226 lung): 58.9 µM | TGI (M14 melanoma): > 100 µM | TGI (SNB-75 CNS): 55 µM | TGI (ACHN renal): 78.2 µM | TGI (SK-MEL-28 melanoma): > 100 µM | TGI (EKVX NSCLC): 82.9 µM | TGI (HOP-62 NSCLC): 42.6 µM | TGI (KM12 colon): 36.8 µM | TGI (HT29 colon): 51.3 µM | TGI (LXFL 529 NSCLC): 74.7 µM | TGI (SF-295 CNS): 73.2 µM | TGI (SF-539 CNS): 86.3 µM | TGI (A549 NSCLC): 81 µM | TGI (HL-60(TB) leukemia): 13.3 µM | TGI (SNB-19 CNS): > 100 µM | TGI (HCT-116 colon): 22.7 µM | TGI (DLD-1 colon): > 100 µM | TGI (HOP-92 NSCLC): 41.7 µM | TGI (UACC-257 melanoma): 52.8 µM | TGI (NCI-H460 lung): 58 µM | TGI (OVCAR-8 ovarian): > 100 µM | TGI (SN12C renal): > 100 µM | TGI (A498 renal): 62.5 µM | TGI (786-0 renal): > 100 µM | TGI (XF 498 CNS): 34.2 µM
